Assay results from patent US7550471B2, “5-alkyl-7-aminotriazolopyrimidines, methods and intermediary product necessary for the production thereof, agents containing said compounds and the use thereof for fighting against harmful mushrooms” (BASF Aktiengesellschaft, priority 2002, dated 2009).

Test system: Alternaria solani
Assay: Activity against early blight of tomato caused by Alternaria solani
Format: in vivo
Settings: 250 ppm active compound, tomato plants sprayed one day before infection, assessed after 5 days; untreated plants 90% infected
Method: The active compounds were formulated separately as a stock solution comprising 0.25% by weight of active compound in acetone or DMSO. 1% by weight of the emulsifier Uniperol® EL (wetting agent having emulsifying and dispersing action based on ethoxylated alkylphenols) was added to this solution. The stock solutions of the active compounds were diluted with water to the stated concentration. Leafs of potted plants of the cultivar “Groβe Fleischtomate St. Pierre” were sprayed to run off point with an aqueous suspension having the concentration of active compound stated below. The next day, the leaves were infected with an aqueous spore suspension of Alternaria solani in a 2% strength biomalt solution of a density of 0.17×10^6 spores/ml. The plants were then placed in a water-vapor-saturated chamber at 20-22° C. After 5 days, the early blight on the untreated but infected control plants had developed to such an extent that the infection could be determined visually in %.

Cc1nc2ncnn2c(N2CCC(C)CC2)c1C1CCCC1 [Compound I-1, 5-methyl-6-cyclopentyl-7-(4-methyl-piperidin-1-yl)-[1,2,4]triazolo[1,5-a]pyrimidine]
infection (early blight, determined visually in %): no infection
